Columns and labels:
[1] = tested on: antibody forming cells against sheep erythocytes (SRBC); assay: Antibody forming cells against sheep erythocytes (SRBC) in mice, plaque count; type: in vivo; settings: four days after SRBC, thirty mice per data point
Description: Activity of Hepreceptor Peptides Enhancing the Antibody-Dependent Cytotoxic Response in […] to Sheep Red Blood Cells (SRBC) in Mice
The influence of Hepreceptor peptides on the activation of antibody forming cells against sheep erythocytes (SRBC) in Mice (CBA-C57B1 Fi hybrids. 2 months old, weight 18-22 grams) was determined. Mice were first injected intraperitoneally using either 0.5 ml sterile saline as a control or Hepreceptor peptides in the same volume of saline. 30 minutes after the injection of Hepreceptor peptides, a cell suspension containing 5 million SRBC was administered intraperitoneally to each mouse. Four days after the immunisation, the mice were killed by cervical dislocation and the spleens were obtained aseptically. Each spleen was homogenised in 2 ml of Medium 199, then 100 microliters of this suspension was put into 1 ml of prepared agarose in Medium 199 (stored in water bath at 48° C.), SRBC suspension was added, resulting in a final concentration of 1% agarose. The Im1 of agarose-cell mixture was agitated then transferred to petri dish to set. When the agarose became solid, the petri dish was incubated for 1 hour at 37° C. then 0.5 ml of 1-in-20 diluted guinea pig serum in Medium 199 was added on top of agarose gel as a source of complement. The incubation was continued for another 1 hour. The dishes were then visualised using an 8×binocular microscope and the number of plaques counted (each plaque equivalent to one antibody secreting mouse spleen cell). The results were expressed both as the number of antibody secreting cells per one million nucleated spleen cells and the number of antibody secreting cells per whole spleen.
Averaged data (from thirty mice per data point) of the number of antibody forming cells per one million nucleated spleen cells. The data was re-based relative to 100 for each control group.

[2] = tested on: IgG serum antibody response to Ovalbumin; assay: Adjuvant activity: IgG serum antibody response to Ovalbumin in mice; type: in vivo; settings: for IgG response recorded as OD: 50 micrograms Ovalbumin, two weeks, sera 1 to 100; for IgG response recorded as OD then rebased relative to 100 for each control: control = 100
Description: Adjuvant Activity of Hepreceptor Peptides Enhancing the IgG Serum Antibody Response to Ovalbumin in Mice
The IgG response in mice two weeks after an injection of 50 micrograms of Ovalbumin plus various concentrations of different hepreceptor peptides was determined. IgG response was measured by Optical Density (OD) of a 1 to 100 dilution of mouse sera in the presence of Ovalbumin.
IgG response recorded as OD
IgG response recorded as OD then data rebased relative to 100 for each control

[3] = tested on: Salmonella typhimurium; assay: Protection of mice from acute Salmonella typhimurium infection; type: in vivo; settings: control 0%
Description: Laboratory mice (CBAxC57B1 F1 hybrids) were split into groups of five which either received 0.5 ml saline or 0.5 ml saline plus various concentrations of different Hepreceptor peptides (1, 10 or 100 nanograms). 24 hours later the mice were acutely infected with Salmonella typhimurium (10,000 or 100,000 bacteria injected intraperitoneally per mouse). The percent of each group of mice surviving after 20 days was recorded (lethally infected control animals were dead within three days of infection).
Percent of mouse group surviving after 20 days infection

[4] = tested on: human Peripheral Blood Mononuclear Cells; assay: In vitro activation of human PBMC, tritiated thymidine incorporation; type: cell-based; settings: three days, Control 370
Description: Peripheral Blood Mononuclear Cells (PBMC) were separated from the peripheral blood of a […] donor using the standard method of fractionation in a ficoll gradient. The PBMC were suspended in culture medium containing RPMI1640 medium plus 10% fetal calf serum, 1 mM L-glutamin and antibiotics (BM). The cell suspension was placed in wells of a 96 hole microwell plate for cell cultivation, (100 microliters of suspension containing 100,000 cells per well). […] The negative control well contained BM but no peptide. The plate was incubated at 37° C. for three days then radioactive ^3H thymidine was added to a final concentration of 1 microcurie per ml. The incorporation of ^3H thymidine into the DNA of the cells was measured using a betacounter using standard procedures. The experiment was repeated twice and the results expressed as an average of the two experiments in radioactive counts per minute.

[5] = tested on: activated macrophages; assay: Induction of activated macrophages in mice (peritoneal exsudate); type: in vivo; settings: for activity in increasing activated macrophages relative to HEP1: 1.0 microgram peptide/mouse; for Activated macrophages as a percent of total number of cells: 1.0 microgram peptide/mouse injected abdominally, after 24 hours, saline 1.9
Description: Groups of three mice (CDAxC57B1)F1 weighing 22-24 g were injected abdominally with each peptide solution of 1.0 microgram of peptide dissolved in 0.5 ml of physiological saline. After 24 hours the animals were killed using neck vertebrae dislocation and 5 ml of Hanks solution was injected into the abdomen. The abdomen was massaged for 30 seconds and then the peritoneal liquid was collected. The collected liquid was filtered using a nylon filter into siliconised tubes containing 1.5 mg/ml EDTA. The number of nucleus containing cells in […] of filtrate were then assessed under microscopic examination using a Nihon hemocytometer. The cells were pelleted by centrifugation for 5 minutes at 800 g, the pellet was resuspended in fetal calf serum, the cell suspension was dropped on to a glass microscope slide and dried then fixed in methanol and stained with Romanovski's colouring agent. Morphological analysis of the cells of the peritoneal exsudate were performed using an Opton optical microscope at 1600 magnifications. The number of lymphocytes, resting macrophages, activated macrophages, granulocytes and other cell types were assessed.

[6] = IP injection 1 microgram per mouse
[7] = IP injection 10 micrograms per mouse
[8] = IP injection 0.01 micrograms per mouse
[9] = IP injection 0.1 micrograms per mouse
[10] = 10,000 bacteria per mouse, 1 nanogram peptide per mouse 24 hours before
[11] = 10,000 bacteria per mouse, 10 nanograms peptide per mouse
[12] = 10,000 bacteria per mouse, 100 nanograms peptide per mouse
[13] = 100,000 bacteria per mouse, 1 nanogram peptide per mouse
[14] = 100,000 bacteria per mouse, 10 nanograms peptide per mouse
[15] = 100,000 bacteria per mouse, 100 nanograms peptide per mouse

Substance | number of antibody forming cells per one million nucleated spleen cells, re-based relative to 100 for control [1, 6] | number of antibody forming cells per one million nucleated spleen cells, re-based relative to 100 for control [1, 7] | IgG response recorded as OD [2, 8] [OD] | IgG response recorded as OD then rebased relative to 100 for each control [2, 8] | IgG response recorded as OD [2, 9] [OD] | IgG response recorded as OD then rebased relative to 100 for each control [2, 9] | IgG response recorded as OD [2, 6] [OD] | IgG response recorded as OD then rebased relative to 100 for each control [2, 6] | IgG response recorded as OD [2, 7] [OD] | incorporation of 3H thymidine ([4]; Peptide 0.0001 micro g/ml) | incorporation of 3H thymidine ([4]; Peptide 0.0003 micro g/ml) | incorporation of 3H thymidine ([4]; Peptide 0.001 micro g/ml) | incorporation of 3H thymidine ([4]; Peptide 0.003 micro g/ml) | incorporation of 3H thymidine ([4]; Peptide 0.01 micro g/ml) | incorporation of 3H thymidine ([4]; Peptide 0.03 micro g/ml) | incorporation of 3H thymidine ([4]; Peptide 0.1 micro g/ml) | incorporation of 3H thymidine ([4]; Peptide 0.3 micro g/ml) | incorporation of 3H thymidine ([4]; Peptide 1 micro g/ml) | incorporation of 3H thymidine ([4]; Peptide 3 micro g/ml) | incorporation of 3H thymidine ([4]; Peptide 10 micro g/ml) | also measured
EREKE (Hepreceptor peptide) [Rupe1014] | 202 | 325 | 0.232 | 183 | 0.231 | 182 | 0.477 | 376 | 0.508 |  |  |  |  |  |  |  |  |  |  |  | IgG response recorded as OD then rebased relative to 100 for each control [2, 7]: 400
EREKEQMMREKEEL (Hepreceptor peptide) [Rupe1024] | 401 | 397 | 0.250 | 164 | 0.262 | 172 | 0.489 | 322 | 0.445 |  |  |  |  |  |  |  |  |  |  |  | Percent of mouse group surviving after 20 days infection [3, 10]: 40%; Percent of mouse group surviving after 20 days infection [3, 11]: 40%; Percent of mouse group surviving after 20 days infection [3, 12]: 40%; Percent of mouse group surviving after 20 days infection [3, 13]: 0%; Percent of mouse group surviving after 20 days infection [3, 14]: 20%; Percent of mouse group surviving after 20 days infection [3, 15]: 40%; IgG response recorded as OD then rebased relative to 100 for each control [2, 7]: 293
KEELMLRLQDYEE (Hepreceptor peptide) [Rupe2032] | 236 | 232 | 0.509 | 401 | 0.606 | 477 | 0.327 | 257 | 0.203 |  |  |  |  |  |  |  |  |  |  |  | IgG response recorded as OD then rebased relative to 100 for each control [2, 7]: 160
KRRETVER (Hepreceptor peptide) [Rupe411] |  |  |  |  |  |  |  |  |  | 385 radioactive counts per minute | 510 radioactive counts per minute | 702 radioactive counts per minute | 598 radioactive counts per minute | 532 radioactive counts per minute | 500 radioactive counts per minute | 499 radioactive counts per minute | 486 radioactive counts per minute | 468 radioactive counts per minute | 420 radioactive counts per minute | 390 radioactive counts per minute | activity in increasing activated macrophages relative to HEP1 [5]: significantly more active than HEP1; Activated macrophages as a percent of total number of cells [5]: 5.5%
RETVEREKE (Hepreceptor peptide) [Rupe614] |  |  |  |  |  |  |  |  |  | 464 radioactive counts per minute | 503 radioactive counts per minute | 550 radioactive counts per minute | 752 radioactive counts per minute | 607 radioactive counts per minute | 538 radioactive counts per minute | 596 radioactive counts per minute | 635 radioactive counts per minute | 600 radioactive counts per minute | 499 radioactive counts per minute | 412 radioactive counts per minute | 
TEKKR (Hepreceptor peptide) [Rupe15] | 255 | 134 |  |  |  |  |  |  |  |  |  |  |  |  |  |  |  |  |  |  | Percent of mouse group surviving after 20 days infection [3, 10]: 20%; Percent of mouse group surviving after 20 days infection [3, 11]: 40%; Percent of mouse group surviving after 20 days infection [3, 12]: 40%; Percent of mouse group surviving after 20 days infection [3, 13]: 20%; Percent of mouse group surviving after 20 days infection [3, 14]: 20%; Percent of mouse group surviving after 20 days infection [3, 15]: 0%
TEKKRRETV (Hepreceptor peptide) [Rupe19] |  |  |  |  |  |  |  |  |  | 426 radioactive counts per minute | 602 radioactive counts per minute | 718 radioactive counts per minute | 756 radioactive counts per minute | 545 radioactive counts per minute | 586 radioactive counts per minute | 537 radioactive counts per minute | 563 radioactive counts per minute | 509 radioactive counts per minute | 502 radioactive counts per minute | 517 radioactive counts per minute | 
TEKKRRETVER (Hepreceptor peptide) [Rupe111] |  |  |  |  |  |  |  |  |  | 483 radioactive counts per minute | 483 radioactive counts per minute | 710 radioactive counts per minute | 665 radioactive counts per minute | 537 radioactive counts per minute | 642 radioactive counts per minute | 633 radioactive counts per minute | 668 radioactive counts per minute | 529 radioactive counts per minute | 486 radioactive counts per minute | 470 radioactive counts per minute | activity in increasing activated macrophages relative to HEP1 [5]: significantly more active than HEP1; Activated macrophages as a percent of total number of cells [5]: 4.3%
